From patent US5939437A, “CCK and gastrin receptor ligands” (James Black Foundation Limited, priority 1994, dated 1999)

What was measured:
CCKA = molecular target: T1, CCKA (Cavia porcellus, UniProt Q63931); test: CCKA binding assay (guinea-pig pancreas membranes); settings: [125I]-CCK8(S) 200 pM, 0.375 μM PD134,308 present, 150 minutes at 21±3° C.
T1 construct: The pancreatata were homogenised in 40 ml ice-cold HEPES buffer; from tissue; host or cells: pancreas membranes of male Dunkin Hartley guinea-pigs
T1 sequence (Q63931 1-430): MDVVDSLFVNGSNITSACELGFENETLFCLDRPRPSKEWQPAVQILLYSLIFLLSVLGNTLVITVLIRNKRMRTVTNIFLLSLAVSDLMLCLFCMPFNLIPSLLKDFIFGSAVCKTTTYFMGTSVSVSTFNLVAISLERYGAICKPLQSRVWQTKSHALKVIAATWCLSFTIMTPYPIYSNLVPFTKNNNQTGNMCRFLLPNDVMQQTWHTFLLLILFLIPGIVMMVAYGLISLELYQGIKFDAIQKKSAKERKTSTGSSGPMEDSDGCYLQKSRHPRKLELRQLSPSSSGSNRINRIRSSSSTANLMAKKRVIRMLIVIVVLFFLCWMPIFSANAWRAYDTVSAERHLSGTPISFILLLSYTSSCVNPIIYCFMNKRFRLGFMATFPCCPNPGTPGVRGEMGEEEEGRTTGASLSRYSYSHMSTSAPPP
Protocol: The compounds of the examples were also tested in a CCKA binding assay as follows:
The pancreatata were removed from male guinea-pigs (200-300 g; Dunkin Hartley) and placed in ice-cold HEPES buffer (pH 7.2@21 ±3° C.). The pancreatata were homogenised in 40 ml ice-cold HEPES buffer using a polytron (Brinkman, PT10, setting 10) 4×1 second. The homogenate was centrifuged at 39,800 g for 15 min at 4° C. The supernatant was discarded and the pellet re-suspended using a Teflon-in-glass homogeniser in 20 volumes of fresh buffer and re-centrifuged as above. The final pellet was re-suspended using a Teflon-in-glass homogeniser to a tissue concentration of 1 mg.ml^-1 (original wet weight), and filtered through 500 μm pore-size Nytex mesh.
The membranes (400 μl; containing 0.375 μM PD134,308) are incubated for 150 minutes at 21±3° C. in a final volume of 0.5 ml with HEPES buffer containing [^125 I]-CCK8 (S) (50 μl; 200 pM) and competing compound. Total and non-specific binding of [^125 I]-CCK^8 (S) are defined using 50 μl of buffer and 50 μl of 100 nM L-364,718respectively. The assay is terminated by rapid filtration through pre-soaked Whatman GF/B filters using a Brandell Cell Harvester. The filters were washed (3×3 ml) with ice-cold 50 mM Tris HCl (pH 7.4 at 4° C. and bound radioactivity is determined by counting (1 min) in a gamma counter.

Gastrin = molecular target: T2, Gastrin (Rattus norvegicus, UniProt P30553); test: gastrin antagonist activity in an immature rat stomach assay (pentagastrin-stimulated acid secretion, isolated stomach); settings: cumulative pentagastrin dose-response curves, 60 min after drug; for Kb: read-out: Gastrin pKB (converted)
T2 construct: The stomach was excised and flushed with ca. 1 ml unbuffered physiological saline solution; from tissue; host or cells: isolated whole stomach of immature rats (33-50 g, ca. 21 days old)
T2 sequence (P30553 1-452): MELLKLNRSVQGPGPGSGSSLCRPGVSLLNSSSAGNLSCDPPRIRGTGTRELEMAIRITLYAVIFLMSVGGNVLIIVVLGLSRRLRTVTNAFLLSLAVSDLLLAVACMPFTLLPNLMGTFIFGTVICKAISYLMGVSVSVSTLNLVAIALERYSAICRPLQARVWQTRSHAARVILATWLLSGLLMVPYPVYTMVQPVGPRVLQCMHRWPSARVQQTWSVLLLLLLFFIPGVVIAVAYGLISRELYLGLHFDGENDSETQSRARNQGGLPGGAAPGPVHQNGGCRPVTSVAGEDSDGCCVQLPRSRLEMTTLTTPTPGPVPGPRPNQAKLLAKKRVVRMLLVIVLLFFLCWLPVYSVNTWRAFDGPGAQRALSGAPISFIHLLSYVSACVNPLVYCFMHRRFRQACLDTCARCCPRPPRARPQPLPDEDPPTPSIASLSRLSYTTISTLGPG
Protocol: The compounds of the examples were also tested for gastrin antagonist activity in an immature rat stomach assay. The procedure was follows:
The oesophagus of immature rats (33-50 g, ca. 21 days old) was ligated at the level of the cardiac sphincter and the duodenal sphincter was cannulated. The stomach was excised and flushed with ca. 1 ml unbuffered physiological saline solution. The fundus was punctured and cannulated. A further 4-5 ml of unbuffered solution was flushed through the stomach to ensure the preparation was not leaking. The stomach was lowered into a jacketed organ bath containing 40 ml of buffered solution containing 3×10^-8 M5methylfurmethide, maintained at 37° and gassed vigorously with 95% O2 /5% CO2. The stomach was continuously perfused at a rate of 1 ml min^-1 with unbuffered solution gassed with 100% O2 with the perfusate passing over an internally referenced pH-electrode fixed 12 cm above the stomach.
After 120 min of stabilisation the drugs were added directly to the serosal solution in the organ bath and after a further 60 min cumulative pentagastrin dose-response curves were started. Changes in acid secretion were monitored and the curves analysed according to Black et. al., Br. J. Pharmacol., 1985, 86, 581.

CCKB = molecular target: T3, CCKB (Mus musculus, UniProt P56481); test: radioligand binding assay at the CCKB (CCK8 [sic]) receptor in mouse cortical membranes; settings: [125I]-CCK8S 200 pM, 150 min at 21±3° C.; for Ki: read-out: CCKB pKi (converted)
T3 construct: The cortex was dissected, weighed and homogenised in 40 ml ice-cold buffer; from tissue; host or cells: cerebral cortex membranes of male CD1 mice (Charles River)
T3 sequence (P56481 1-453): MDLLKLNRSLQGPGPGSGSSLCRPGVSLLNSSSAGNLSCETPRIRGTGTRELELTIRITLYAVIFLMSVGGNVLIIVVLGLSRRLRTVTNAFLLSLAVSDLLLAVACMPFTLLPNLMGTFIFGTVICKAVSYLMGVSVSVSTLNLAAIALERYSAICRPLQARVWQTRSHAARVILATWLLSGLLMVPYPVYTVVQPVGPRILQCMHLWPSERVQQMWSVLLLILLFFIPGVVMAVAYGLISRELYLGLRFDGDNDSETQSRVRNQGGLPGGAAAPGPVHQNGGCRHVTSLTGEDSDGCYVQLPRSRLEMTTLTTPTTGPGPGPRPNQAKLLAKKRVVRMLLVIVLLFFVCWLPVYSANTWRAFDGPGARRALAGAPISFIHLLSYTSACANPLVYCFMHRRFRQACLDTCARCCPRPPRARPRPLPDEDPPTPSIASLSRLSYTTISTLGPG
Protocol: The compounds of the examples were tested for binding at the CCK8 receptor in mouse cortical membranes by means of a radioligand binding assay. The procedure was as follows: The whole brains from male mice (CD1 22-25 g; Charles River) were removed and placed in ice-cold buffer (pH7.2@21±3° C.) of the following composition (mM); 10 HEPES, 130 NaCl, 4.7 KCl, 5 MgCl2, 1 EDTA and containing 0.25 g.1^-1 bacitracin. The cortex was dissected, weighed and homogenised in 40 ml ice-cold buffer using a Teflon-in-glass homogeniser. The homogenate was centrifuged at 39,800 g for 20 min at 4° C., the supernatant discarded and the pellet resuspended by homogenisation in fresh buffer. The homogenate was recentrifuged (39,800 g; 20 min@4° C.) and the final pellet was resuspended in HEPES buffer to give a tissue concentration of 2 mg.ml^-1 (original wet weight). The membranes ([…]) were incubated for 150 min at 21±3° C. in a final volume of 0.5 ml with HEPES buffer containing [^25 I]-CCK8S (0.05 ml; 200 pM NEN 2200 Ci.mmol^-1) and competing compound. Total and non-specific binding of [^125 I]-CCK8S were defined using 0.05 ml of buffer and 0.05 ml of […] L-365,260, respectively. The assay was terminated by rapid filtration through pre-soaked Whatman GF/B 35 filters using a Brandell Cell harvester. The filters were washed (3×3 ml) with ice-cold 5 mM Tris-HCl (pH7.4@4° C.) and bound radioactivity determined by counting (1 min.) in a gamma-counter.

Ki (CCKA; read-out: CCKA pKi (converted)) [µM]	Kb (Gastrin) [nM]	Ki (CCKB) [nM]	CCKA pKi (CCKA)	Gastrin pKB (Gastrin)	CCKB pKi (CCKB)	SMILES
3.98	63.1	200				Nc1ccc(C(=O)N[C@@H](Cc2ccccc2)C(=O)Nc2cc(C(=O)O)cc(C(=O)O)c2)c(C(=O)NCC23CC4CC(CC(C4)C2)C3)c1 [Example 16, 1-(1S-(3,5-dicarboxyphenylamino-carbonyl)-2-phenylethylaminocarbonyl)-2-(1-adamantanemethyl-25 aminocarbonyl)-4-aminobenzene]
	3.98	79.4	5.5			O=C(O)c1cc(NC(=O)[C@H](Cc2ccccc2)NC(=O)c2ccccc2C(=O)NCC23CC4CC(CC(C4)C2)C3)cc(C(=O)O)c1 [Example 1, (1S-(3,5-dicarboxyphenylaminocarbonyl)-2-phenylethylaminocarbonyl)-2-(1-adamantanemethylaminocarbonyl)-benzene]
			5.2	6.5	6.3	O=C(O)c1cc(NC(=O)[C@H](Cc2ccccc2)NC(=O)c2cocc2C(=O)NCC23CC4CC(CC(C4)C2)C3)cc(C(=O)O)c1 [Example 12, 3-(1S-(3,5-dicarboxyphenylamino-carbonyl)-2-phenylethylaminocarbonyl)-4-(1-adamantanemethyl-aminocarbonyl)furan]
			5.9	6.3	6.5	O=C(O)c1cc(NC(=O)[C@H](Cc2ccccc2)NC(=O)c2ccccc2C(=O)NCC2CCCCCC2)cc(C(=O)O)c1 [Example 7, (1R-(3,5-dicarboxyphenylaminocarbonyl)-2-phenylethylaminocarbonyl)-2-(cycloheptanemethylaminocarbonyl)-benzene]
